The series can be described thus: Example 5 Supplemental: turbidity meter (Nephla) of compositions with active agents over time (Table 12a). As to Clarity: key: Clear: categorised as being clear if there was no significant visible opacity to the naked eye; Cloudy: categorised as cloudy if there was significant visible disruption to the passage of light. The class given is physicochemical. Particulars: SMA 3000P (hydrolysed) 2.5%, lipid 90H 1%. As to the method: The turbidity meter was calibrated prior to use, with two known standards (0 and 40 FNU).
After the final stage of sample preparation (i.e. adjustment of the pH to physiological) samples were course filtered through Whatman 541 filter paper to remove any gross matter which could interfere with turbidity measurement. Immediately after filtration the first turbidity measurement was taken. Mixtures were stored at 4° C. following the initial measurement, and remeasured at later time points.

[1] abbreviates: S LPC 0.01%, active agent 0.25%.
The mark [2] stands for this setting: SL 30-3 0.05% (S LPC content 0.01%), active agent 0.80%.
Where [3] appears, read: S LPC 0.01%, active agent 0.15%.

`CC(C)CCC[C@@H](C)[C@H]1CC[C@H]2C3=CC=C4C[C@@H](O)CC[C@]4(C)[C@H]3CC[C@]12C` [7-DHC, 7-Dehydrocholesterol]: where the note is “S LPC 0.01%, active agent 0.1%”, the Clarity entry was “Clear”, the pH on clearing was 8.91 and the “Turbidity at pH 7 (FNU)” value turned out to be 7.28 FNU.

Regarding `COc1ccc(C(=O)CC(=O)c2ccc(C(C)(C)C)cc2)cc1` [Avobenzene], for the setting “S LPC 0.01%, active agent 0.1%”, the Clarity result is “Clear”, the pH on clearing came to 8.88 and the “Turbidity at pH 7 (FNU)” value was 62.0 FNU.

In the case of `CC(C)CCC[C@@H](C)[C@H]1CC[C@H]2[C@@H]3CC=C4C[C@@H](OS(=O)(=O)O)CC[C@]4(C)[C@H]3CC[C@]12C` [Chol Sulphate], under “S LPC 0.01%, active agent 0.1%”, the Clarity entry was “Clear”, the pH on clearing was 8.81 and the “Turbidity at pH 7 (FNU)” value is given as 17.81 FNU.

With `CCCC(=O)O[C@]1(C(=O)CCl)[C@H](C)C[C@@H]2[C@@H]3CCC4=CC(=O)C=C[C@]4(C)[C@]3(F)C(=O)C[C@@]21C` [Clo. But], under “S LPC 0.01%, active agent 0.1%”, the Clarity entry is given as “Clear”, the pH on clearing was determined as 8.94 and the “Turbidity at pH 7 (FNU)” value was 63.0 FNU.

As for `CCC(=O)O[C@]1(C(=O)CCl)[C@@H](C)C[C@H]2[C@@H]3CCC4=CC(=O)C=C[C@]4(C)[C@@]3(F)[C@@H](O)C[C@@]21C` [Clo. P, Clobetasol Propionate, reference compound], where the note is “S LPC 0.01%, active agent 0.1%”, the Clarity entry is listed as “Clear”, the pH on clearing came to 8.85 and the “Turbidity at pH 7 (FNU)” value turned out to be 50 FNU.

`Clc1ccccc1C(c1ccccc1)(c1ccccc1)n1ccnc1` [Clot., Clotrimazole, reference compound]: under “S LPC 0.01%, active agent 0.1%”, the Clarity entry is listed as “Clear”, the pH on clearing is given as 8.78 and the “Turbidity at pH 7 (FNU)” value is on record as 5.91 FNU.

Turning to `CC(=O)OCC(=O)[C@@]1(O)CC[C@H]2[C@@H]3CCC4=CC(=O)CC[C@]4(C)[C@H]3C(=O)C[C@@]21C` [Cort. A., Cortisone Acetate, reference compound], under setting [1], the Clarity result is “Clear”, the pH on clearing was found to be 8.87 and the “Turbidity at pH 7 (FNU)” value came to 14.28 FNU.

Consider `CC(=O)OCC(=O)[C@@]1(O)[C@H](C)C[C@H]2[C@@H]3CCC4=CC(=O)C=C[C@]4(C)[C@@]3(F)[C@@H](O)C[C@@]21C` [DEX A.A., Dexamethasone Acetate Anhydrous, reference compound], for which, under setting [1], the Clarity result was “Clear”, the pH on clearing is given as 8.84 and the “Turbidity at pH 7 (FNU)” value came out at 10.52 FNU.

As for `CCCCC(CC)COC(=O)C=Cc1ccc(OC)cc1` (centres unmarked) [Eusolex 2292, Octyl methoxycinimate], for the setting “S LPC 0.01%, active agent 0.1%”, the Clarity result was “Clear”, the pH on clearing turned out to be 8.81 and the “Turbidity at pH 7 (FNU)” value turned out to be 24.50 FNU.

Consider `COc1ccc(C(=O)c2ccccc2)c(O)c1` [Eusolex 4360, Benzophenone-3], for which, where the note is “S LPC 0.01%, active agent 0.1%”, the Clarity result is “Clear”, the pH on clearing is recorded as 8.96 and the “Turbidity at pH 7 (FNU)” value is reported as 31.00 FNU.

Regarding `CC(=O)OCC(=O)[C@@]1(O)CC[C@H]2[C@@H]3CCC4=CC(=O)CC[C@]4(C)[C@H]3[C@@H](O)C[C@@]21C` [HC A, Hydrocortisone Acetate, reference compound], under setting [1], the Clarity entry is given as “Clear”, the pH on clearing stood at 8.92 and the “Turbidity at pH 7 (FNU)” value was 39.6 FNU.

With `CCCC(=O)O[C@]1(C(=O)CO)CC[C@H]2[C@@H]3CCC4=CC(=O)CC[C@]4(C)[C@H]3[C@@H](O)C[C@@]21C` [HC But], where the note is “S LPC 0.01%, active agent 0.1%”, the Clarity result is on record as “Clear”, the pH on clearing was 8.86 and the “Turbidity at pH 7 (FNU)” value turned out to be 33.1 FNU.

On to `C[C@]12CCC(=O)C=C1CC[C@@H]1[C@@H]2[C@@H](O)C[C@@]2(C)[C@H]1CC[C@]2(O)C(=O)CO` [HC, Hydrocortisone, reference compound], for which, under setting [1], the Clarity entry is “Clear”, the pH on clearing is reported as 8.97 and the “Turbidity at pH 7 (FNU)” value turned out to be 9.09 FNU.

Turning to `CC(=O)N1CCN(c2ccc(OCC3COC(Cn4ccnc4)(c4ccc(Cl)cc4Cl)O3)cc2)CC1` (centres unmarked) [Keta., Ketaconazole, reference compound], for the setting “S LPC 0.01%, active agent 0.1%”, the Clarity entry is reported as “Clear”, the pH on clearing was 8.63 and the “Turbidity at pH 7 (FNU)” value turned out to be 40.75 FNU. For the same molecule, where the note is “S LPC 0.01%, active agent 0.4%”, the Clarity entry is given as “Clear”, the pH on clearing is given as 8.83 and the “Turbidity at pH 7 (FNU)” value stood at 74.5 FNU.

For `CC(Cc1ccc(O)c(O)c1)C(C)Cc1ccc(O)c(O)c1` (centres unmarked) [NDGA, Nordihydroguaiaretic acid], under “S LPC 0.01%, active agent 0.1%”, the Clarity result was “Clear”, the pH on clearing was found to be 8.98 and the “Turbidity at pH 7 (FNU)” value stood at 27.7 FNU.

With `NC[C@@H]1O[C@H](O[C@H]2[C@@H](O)[C@H](O[C@@H]3[C@@H](O)[C@H](N)C[C@H](N)[C@H]3O[C@H]3O[C@H](CN)[C@@H](O)[C@H](O)[C@H]3N)O[C@@H]2CO)[C@H](N)[C@@H](O)[C@@H]1O.O=S(=O)(O)O` [Neo. Sulphate, Neomycin Sulphate, reference compound], for the setting “S LPC 0.01%, active agent 0.1%”, the Clarity result is listed as “Clear”, the pH on clearing came out at 8.82 and the “Turbidity at pH 7 (FNU)” value is 42.80 FNU.

In the case of `C[C@@H]1[C@H](O)[C@@H](C)/C=C/C=C/CC/C=C/C=C/C=C/C=C/C(O[C@H]2O[C@H](C)[C@@H](O)[C@H](N)[C@@H]2O)CC2O[C@](O)(CC(O)C(O)CCC(O)CC(O)CC(O)CC(=O)O[C@H]1C)CC(O)C2C(=O)O` (some centres unmarked) [Nystatin, reference compound], under “S LPC 0.01%, active agent 0.1%”, the Clarity entry was “Clear”, the pH on clearing came to 8.85 and the “Turbidity at pH 7 (FNU)” value is given as 6.93 FNU.

Regarding `Cc1cc(CC(C)CC(C)(C)C)n(O)c(=O)c1.NCCO` (centres unmarked) [Octopirox, Piroctone olamine], under setting [2], the Clarity entry is “Clear” and the “Turbidity at pH 7 (FNU)” value is on record as 3.52 FNU.

With `Nc1ccc(C(=O)O)cc1` [PABA, 4-Aminobenzoic acid], for the setting “S LPC 0.01%, active agent 0.1%”, the Clarity result is recorded as “Clear”, the pH on clearing stood at 8.89 and the “Turbidity at pH 7 (FNU)” value was 23.20 FNU.

With `CC(C)[C@@H]1CC[C@@H](C)C[C@H]1OC(=O)C1CCC(=O)N1` (some centres unmarked) [Questice], under setting [1], the Clarity result is “Clear”, the pH on clearing is recorded as 8.84 and the “Turbidity at pH 7 (FNU)” value was 28.9 FNU.

For `CC12CCC(C(=Cc3ccccc3)C1=O)C2(C)C` (centres unmarked) [Unisol S-22, 3-Benzylidene camphor], under setting [3], the Clarity entry is recorded as “Clear”, the pH on clearing is recorded as 8.94 and the “Turbidity at pH 7 (FNU)” value was 9.46 FNU.

With `C=C1CC[C@H](O)C/C1=C/C=C1\CCC[C@]2(C)[C@@H]([C@H](C)CCCC(C)C)CC[C@@H]12` [Vitamin D3, Cholecalciferol, reference compound], under setting [1], the Clarity result was “Clear”, the pH on clearing came to 8.59 and the “Turbidity at pH 7 (FNU)” value amounted to 19.78 FNU.

As to Ceramide IIIB [Cera. IIIB], where the note is “S LPC 0.01%, active agent 0.1%”, the Clarity entry is “Clear”, the pH on clearing was 8.98 and the “Turbidity at pH 7 (FNU)” value was found to be 120.7 FNU.

Take “Erythromycin Sulphate [Erythro., reference compound]”: for the setting “S LPC 0.01%, active agent 0.1%”, the Clarity entry is given as “Clear”, the pH on clearing is recorded as 8.86 and the “Turbidity at pH 7 (FNU)” value is on record as 18.20 FNU.

The values above are taken from patent publication US8623414B2, “Compositions comprising a lipid and copolymer of styrene and maleic acid” (Malvren Cosmeceutics Limited, priority 2005, dated 2014).
